From patent US4472413A, “9'-Azabicyclo [3.3.1] nonyl benzamide” (Beecham Group p.l.c., priority 1981, dated 1984)

What follows are compounds tested on post-synaptic Dopamine (D.A.) receptors (assay: Inhibition of apomorphine induced climbing in the mouse). Conditions: po, 4 hour post dosing; apomorphine 1 mg/kg subcutaneous; male CD1 mice.
Format: in vivo
Method: The results in the following table are an illustration of the anti-psychotic activity of the present compounds as shown by Inhibition of Apormorphine Induced Climbing in the Mouse, a standard test.
Inhibition of apomorphine induced climbing in the mouse
The test is based on that described by Protais, P., Constantin, J. and Schwartz J. C. (1976), Psychopharmacology, 50, 1-6.
When mice are given a dose of 1 mg/kg apomorphine and then placed in an enclosed environment, such as an inverted wire cage, they are seen to climb around the walls. This behavioural phenomenon is thought to be a consequence of the stimulation of post-synaptic Dopamine (D.A.) receptors in the nucleus accumbens. Inhibition of apomorphine induced climbing is therefore indicative of post-synaptic D.A. receptor blockage in the accumbens.
Groups of 10 male CD1 mice, weighing 25-30 g were pre-treated orally with either graded doses of the test compound or vehicle, at appropriate time intervals before the subcutaneous administration of a sub-maximal dose of apomorphine (1 mg/kg). Immediately after the apomorphine injection the mice were placed in wire `climbing cages` and each animal was scored for climbing behaviour at 10 and 20 minutes post apomorphine as follows:
Four paws on cage floor=0
The total score was calculated for each group of mice and expressed as a percentage inhibition of climbing. [formula]
ED50's and fiducial limits were calculated according to the method of Litchfield and Wilcoxon, the ED50 being the dose that produced a 50% inhibition of apomorphine-induced climbing.

| SMILES | ED50 (dose that produced a 50% inhibition of apomorphine-induced climbing) [mg/kg] |
| --- | --- |
| COc1cc(N)c(Cl)cc1C(=O)N[C@@H]1C[C@H]2CCC[C@@H](C1)N2Cc1ccc(F)cc1 [Example 1B, 4-Amino-5-chloro-2-methoxy-N-{3'β-[9'-(4-fluorobenzyl)-9'-azabicyclo[3.3.1]-nonyl]}-benzamide] | 0.008 |
| COc1cc(N)c(Cl)cc1C(=O)N[C@@H]1C[C@H]2CCC[C@@H](C1)N2Cc1ccc(Cl)cc1 [Example 2B] | 0.027 |
| COc1cc(N)c(Cl)cc1C(=O)N[C@@H]1C[C@H]2CCC[C@@H](C1)N2Cc1ccc(C)cc1 [Example 3B, 4-Amino-5-chloro-2-methoxy-N-{3'β[9'-(4-methylbenzyl)-9'-azabicyclo[3.3.1]-nonyl]}-benzamide] | 0.07 |
